Measurements reported in patent publication US10323018B2 (Millennium Pharmaceuticals, Inc., priority 2015, dated 2019).

Legend:
hNAMPT protein = hNAMPT protein (Homo sapiens (Human), UniProt P43490); test: NAMPT enzyme assay (TR-FRET/HTRF with BodiPY ligand); format: binding; conditions: for inhibition at 1 µM: read-out: Percent Inhibition; for IC50: NAMPT inhibition, IC50 range class
From the text: As discussed above, the invention provides compounds that are useful as inhibitors of the enzyme NAMPT. The NAMPT inhibition of a compound of the invention can be measured using a variety of methods known in the art. For example, the ability of a compound of the invention to inhibit NAMPT enzyme activity can be measured using a homogeneous time resolved fluorescence (HTRF) assay using hNAMPT protein and anti 6His-Tb in buffer treated with a compound of the invention (or control e.g., DMSO) and BodiPY ligand. The TR-FRET signal can be measured using a high throughput microplate reader (e.g., Pherastar). Excitation can be carried out at 320 nm. The percent inhibition value at a single concentration of compound of the invention can be calculated relative to a control treated sample. A concentration response curve can be generated for each compound of the invention and the curve fitted to generate an IC50 value. […] To measure the inhibition of NAMPT activity hNAMPT protein stock and anti 6His-Tb (Cisbio; Cat. No. […]TLB) is diluted to 3× final concentration with assay buffer (50 mM Tris-HCl (pH 7.5), 1 mM DTT, 100 mM NaCl, 10 mM MgCl2, 0.005% Tween 20). To this solution is added a test compound or vehicle control (DMSO) and BodiPY ligand (structure below). The plate is shaken for 1-2 min sealed and incubated for 1 h at rt in the dark. The TR-FRET signal is measured using BMG Pherastar (Lanthascreen protocol on BMG Pherastar). Excitation was carried out at 320 nm, and the ratio of emission of BodiPY (520 nm) to terbium (486 nm) was determined. Concentration response curves are generated by calculating the excitation increase in test compound-treated samples relative to DMSO-treated controls. For the assay method described above, test compound percent inhibition values at a single concentration are calculated relative to control (DMSO) treated samples. Compound concentration response curves are fitted to generate IC50 values from those curves. One skilled in the art will appreciate that these values generated either as percentage inhibition at a single concentration or IC50 values are subject to experimental variation.

PC3 cells = test: PC3 growth inhibition (Cell-titer glo, 72 hours); format: cell-based; conditions: for viability at 1.667 µM: Homo sapiens, PC-3, 72 h, read-out: Percent Viability, PC3 cells, compound concentration 1.667 μM, 72 hours
Description: The invention also provides compounds that inhibit cell growth. The ability of a compound of the invention to inhibit the growth of cells can be measured using a variety of methods known in the art. For example, the ability of a compound of the invention to inhibit the growth of PC3 cells can be measured. PC3 cells can be plated and incubated overnight under CO2. For each measurement, a compound of the invention (or vehicle e.g., DMSO) can be diluted with AIM serum free medium and added to the cell plate. The cell plate can then be incubated for 72 h under CO2. Cell-titer glo solution can be added and the plates can be incubated protected from light and the amount of luminescences can be measured. Concentration response curves can be generated by calculating the luminescence increase in test compound treated samples relative to DMSO-treated controls. Percentage remaining viability values at a single concentration can be measured. Growth inhibition (GI50) or cell viability (LD50) values can be determined from thoses curves. In one embodiment, compounds of the invention have a percent viability in PC3 line @ 1.667 uM of <1%. In one embodiment, compounds of the invention have a percent viability in PC3 line @ 1.667 uM of <2%. In one embodiment, compounds of the invention have a percent viability in PC3 line @ 1.667 uM of <3%. In one embodiment, compounds of the invention have a percent viability in PC3 line @ 1.667 uM of <4%. In one embodiment, compounds of the invention have a percent viability in PC3 line @ 1.667 uM of <5%. In one embodiment, compounds of the invention have a percent viability in PC3 line @ 1.667 uM of <10%. In one embodiment, compounds of the invention have a percent viability in PC3 line @ 1.667 uM of <50%.
To measure PC3 growth inhibition, PC3 cells that were maintained in RPMI1640 growth medium (Life Technologies; Cat. No. 11875) at 37° C. under 5% CO2 are trypsinized and diluted at a density of 8×10^4 cells/ml, 25 ul per well of cells and plated in 384-well black tissue culture plate. The cells are incubated overnight at 37° C. under 5% CO2. For each measurement, a test compound or vehicle DMSO control is diluted with AIM serum free medium and added to the cell plate. The cell plate is incubated for 72 hours at 37° C. under 5% CO2. 25 μl Cell-titer glo solution (Promega; Cat. No. G8462) is added and the cell plates are incubated for 10 minutes protected from light. The luminescence is measured. Concentration response curves are generated by calculating the luminescence increase in test compound-treated samples relative to DMSO-treated controls. Percentage remaining viability values at a single concentration, growth inhibition (GI50) or cell viability (LD50) values are determined from those curves. One skilled in the art will appreciate that these values are subject to experimental variation.

[1] = NAMPT inhibition at compound concentration 1 μM

hNAMPT protein, sequence (P43490 whole entry): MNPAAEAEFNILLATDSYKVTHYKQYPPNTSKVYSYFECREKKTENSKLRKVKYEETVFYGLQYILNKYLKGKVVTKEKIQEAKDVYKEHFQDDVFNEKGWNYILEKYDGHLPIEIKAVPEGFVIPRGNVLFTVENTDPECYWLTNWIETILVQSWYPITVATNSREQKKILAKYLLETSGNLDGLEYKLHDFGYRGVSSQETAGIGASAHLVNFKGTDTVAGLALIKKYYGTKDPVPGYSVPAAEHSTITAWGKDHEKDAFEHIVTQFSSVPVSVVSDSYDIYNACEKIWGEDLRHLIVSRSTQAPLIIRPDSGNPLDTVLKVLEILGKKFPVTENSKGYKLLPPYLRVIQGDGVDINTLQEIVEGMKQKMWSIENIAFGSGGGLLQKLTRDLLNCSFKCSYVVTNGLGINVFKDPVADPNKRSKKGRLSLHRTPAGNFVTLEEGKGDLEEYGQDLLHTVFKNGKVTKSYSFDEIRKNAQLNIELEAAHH

CCCc1nc(-c2ccc(Cl)cc2)nc2cc(C(=O)NCC3CC3c3ncc[nH]3)ccc12 (racemic) [Compound I-59, 2-(4-chlorophenyl)-N-{[trans-(1,2)-2-(1H-imidazol-2-yl)cyclopropyl]methyl}-4-propylquinazoline-7-carboxamide]
inhibition at 1 µM (hNAMPT protein; [1]): 90% | IC50 (hNAMPT protein): 0.05 to 0.1 µM | viability at 1.667 µM (PC3 cells): 2%

CCOc1cc(-c2ccc(F)cc2)nc2cc(C(=O)NCC3CC3c3ncc[nH]3)ccc12 (single isomer, unassigned) [Compound I-50, 4-Ethoxy-2-(4-fluorophenyl)-N-{[trans-(1,2)-2-(1H-imidazol-2-yl)cyclopropyl]methyl}quinoline-7-carboxamide]
inhibition at 1 µM (hNAMPT protein; [1]): 99% | IC50 (hNAMPT protein): < 0.01 µM | viability at 1.667 µM (PC3 cells): 3%

CCOc1cc(-c2ccc(F)cc2)nc2cc(C(=O)NCC3CC3c3ncc[nH]3)ccc12 (single isomer, unassigned) [Compound I-51, 4-Ethoxy-2-(4-fluorophenyl)-N-{[trans-(1,2)-2-(1H-imidazol-2-yl)cyclopropyl]methyl}quinoline-7-carboxamide]
Percent Inhibition (hNAMPT protein; [1]): 98% | IC50 (hNAMPT protein): 0.01 to 0.05 µM | Percent Viability (PC3 cells; human, 72 h, 1.667 µM): 4%

CC[C@@H](F)c1nc(-c2ccc(Cl)cc2)nc2cc(C(=O)NCCCc3ncc[nH]3)ccc12 (stereo in doubt) [Compound I-72, 2-(4-chlorophenyl)-4-[1-fluoropropyl]-N-[3-(1H-imidazol-2-yl)propyl]quinazoline-7-carboxamide]
inhibition at 1 µM (hNAMPT protein; [1]): 98% | IC50 (hNAMPT protein): < 0.01 µM | viability at 1.667 µM (PC3 cells): 1%

CCCc1nc(-c2ccc(Cl)cc2)nc2cc(C(=O)NCCc3cncn3C)ccc12 [Compound I-1, 2-(4-chlorophenyl)-N-[2-(1-methyl-1H-imidazol-5-yl)ethyl]-4-propylquinazoline-7-carboxamide]
inhibition at 1 µM (hNAMPT protein; [1]): > 99% | IC50 (hNAMPT protein): < 0.01 µM | viability at 1.667 µM (PC3 cells): 2%

CCOc1cc(-c2ccc(F)cc2)nc2cc(C(=O)NCCc3cncn3C)ccc12 [Compound I-2, 4-ethoxy-2-(4-fluorophenyl)-N-[2-(1-methyl-1H-imidazol-5-yl)ethyl]quinoline-7-carboxamide]
inhibition at 1 µM (hNAMPT protein; [1]): > 99% | IC50 (hNAMPT protein): < 0.01 µM | viability at 1.667 µM (PC3 cells): 2%

CCCc1nc(-c2ccc(Cl)cc2)nc2cc(C(=O)N[C@H]3C[C@@H](c4ncc[nH]4)C3)ccc12 [Compound I-3, 2-(4-Chlorophenyl)-N-[cis-3-(1H-imidazol-2-yl)cyclobutyl]-4-propyl-quinazoline-7-carboxamide]
inhibition at 1 µM (hNAMPT protein; [1]): 94% | IC50 (hNAMPT protein): 0.01 to 0.05 µM | viability at 1.667 µM (PC3 cells): 2%

CCCc1nc(-c2ccc(Cl)cc2)nc2cc(C(=O)NCCCc3ncc[nH]3)ccc12 [Compound I-4, 2-(4-chlorophenyl)-N-[3-(1H-imidazol-2-yl)propyl]-4-propylquinazoline-7-carboxamide]
inhibition at 1 µM (hNAMPT protein; [1]): 99% | IC50 (hNAMPT protein): < 0.01 µM | viability at 1.667 µM (PC3 cells): 1%

CCOc1cc(-c2ccc(F)cc2)nc2cc(C(=O)NCCCc3nnc[nH]3)ccc12 [Compound I-5, 4-ethoxy-2-(4-fluorophenyl)-N-[3-(4H-1,2,4-triazol-3-yl)propyl]quinoline-7-carboxamide]
inhibition at 1 µM (hNAMPT protein; [1]): 100% | IC50 (hNAMPT protein): < 0.01 µM | viability at 1.667 µM (PC3 cells): 1%

CCOc1cc(-c2ccc(F)cc2)nc2cc(C(=O)NCCc3cn(C)cn3)ccc12 [Compound I-6, 4-ethoxy-2-(4-fluorophenyl)-N-[2-(1-methyl-1H-imidazol-4-yl)ethyl]quinoline-7-carboxamide]
inhibition at 1 µM (hNAMPT protein; [1]): 94% | IC50 (hNAMPT protein): 0.05 to 0.1 µM | viability at 1.667 µM (PC3 cells): 1%

CCCc1nc(-c2ccc(Cl)cc2)nc2cc(C(=O)NCCCc3nnc[nH]3)ccc12 [Compound I-7, 2-(4-chlorophenyl)-4-propyl-N-[3-(4H-1,2,4-triazol-3-yl)propyl]quinazoline-7-carboxamide]
inhibition at 1 µM (hNAMPT protein; [1]): 97% | IC50 (hNAMPT protein): 0.01 to 0.05 µM | viability at 1.667 µM (PC3 cells): 1%
